According to the supplement of paper PMC6045584:
± gives the standard deviation of the averaged measurements.

Columns and labels:
MDV3100 = compound: CNC(=O)c1ccc(N2C(=S)N(c3ccc(C#N)c(C(F)(F)F)c3)C(=O)C2(C)C)cc1F [MDV3100]; experiment: surviving fraction relative to DMSO-only wells; higher = less growth inhibition; details: exposure time: 5 days
Summary of the method: (§1)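 Five days of continuous inhibitor exposure, at 0.5, 1, 5, 10, 50, 100, 500 and 1000 nM, followed a 24-hour period after log-phase tumour cell lines were seeded at 250–500 cells per well in 384-well plates. Surviving fraction was derived from CellTiter-Glo luminescence relative to the median of DMSO-only wells. Plates were read after 10 minutes at room temperature, and lines screened three times were kept only if replicate Pearson r >0.7 and median Z' >0.3.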

BI-2536 = compound: CC[C@@H]1C(=O)N(C)c2cnc(Nc3ccc(C(=O)NC4CCN(C)CC4)cc3OC)nc2N1C1CCCC1 [BI-2536]; experiment: as above; details: exposure time: 5 days
Summary of the method: as §1

Row | Test System | surviving fraction (MDV3100; 0.5 nM) | surviving fraction (MDV3100; 1 nM) | surviving fraction (MDV3100; 5 nM) | surviving fraction (MDV3100; 10 nM) | surviving fraction (MDV3100; 50 nM) | surviving fraction (MDV3100; 100 nM) | surviving fraction (MDV3100; 500 nM) | surviving fraction (MDV3100; 1000 nM) | surviving fraction (BI-2536; 0.5 nM) | surviving fraction (BI-2536; 1 nM) | surviving fraction (BI-2536; 5 nM) | surviving fraction (BI-2536; 10 nM) | surviving fraction (BI-2536; 50 nM) | surviving fraction (BI-2536; 100 nM) | surviving fraction (BI-2536; 500 nM) | surviving fraction (BI-2536; 1000 nM)
1 | MG63 BONE | 0.988 ± 0.0044 | 0.953 ± 0.026 | 1.01 ± 0.015 | 0.999 ± 0.028 | 1.02 ± 0.013 | 1.02 ± 0.019 | 0.968 ± 0.03 | 0.931 ± 0.011 | 1.057 ± 0.0095 | 1.02 ± 0.053 | 0.884 ± 0.049 | 0.0403 ± 0.0059 | 0.033 ± 0.0017 | 0.023 ± 0.0017 | 0.029 ± 0.001 | 0.03 ± 0.001
2 | JIMT1 BREAST | 0.964 ± 0.025 | 0.9673 ± 0.007 | 1.01 ± 0.02 | 0.983 ± 0.02 | 1.04 ± 0.048 | 1.07 ± 0.076 | 1.05 ± 0.055 | 0.982 ± 0.025 | 0.941 ± 0.041 | 0.737 ± 0.015 | 0.2183 ± 0.0013 | 0.181 ± 0.0095 | 0.18 ± 0.017 | 0.158 ± 0.02 | 0.143 ± 0.0061 | 0.0883 ± 0.0045
3 | HT1080 SOFT TISSUE | 1.052 ± 0.0076 | 1.07 ± 0.03 | 1.063 ± 0.008 | 1.05 ± 0.016 | 1.02 ± 0.018 | 1.04 ± 0.045 | 0.999 ± 0.015 | 0.994 ± 0.027 | 1.05 ± 0.027 | 1.067 ± 0.01 | 0.9357 ± 0.0021 | 0.087 ± 0.0056 | 0.0513 ± 0.0051 | 0.051 ± 0.0035 | 0.077 ± 0.0046 | 0.0823 ± 0.0095
4 | MDAMB231 BREAST | 0.961 ± 0.034 | 0.954 ± 0.035 | 0.978 ± 0.022 | 0.969 ± 0.012 | 0.988 ± 0.034 | 0.997 ± 0.025 | 0.96 ± 0.026 | 0.944 ± 0.014 | 0.975 ± 0.02 | 0.954 ± 0.01 | 0.425 ± 0.015 | 0.385 ± 0.011 | 0.39 ± 0.011 | 0.391 ± 0.0073 | 0.338 ± 0.013 | 0.245 ± 0.0063
5 | HU09 BONE | 0.984 ± 0.077 | 1.03 ± 0.11 | 1.05 ± 0.071 | 1.12 ± 0.18 | 1 ± 0.055 | 1.04 ± 0.057 | 0.952 ± 0.053 | 0.954 ± 0.018 | 1.03 ± 0.049 | 0.939 ± 0.14 | 0.066 ± 0.0044 | 0.0487 ± 0.0047 | 0.086 ± 0.033 | 0.076 ± 0.017 | 0.0617 ± 0.0081 | 0.0403 ± 0.0032
6 | SIHA CERVIX | 0.88 ± 0.024 | 0.824 ± 0.067 | 0.999 ± 0.038 | 0.97 ± 0.057 | 1.01 ± 0.076 | 0.975 ± 0.043 | 0.875 ± 0.086 | 0.844 ± 0.055 | 1.11 ± 0.027 | 1.04 ± 0.065 | 0.351 ± 0.025 | 0.263 ± 0.031 | 0.262 ± 0.016 | 0.301 ± 0.0078 | 0.214 ± 0.014 | 0.147 ± 0.015
7 | LM7 BONE | 0.992 ± 0.053 | 1.01 ± 0.073 | 1.07 ± 0.096 | 1.06 ± 0.03 | 1.15 ± 0.09 | 1.14 ± 0.087 | 1.07 ± 0.096 | 0.963 ± 0.05 | 0.925 ± 0.054 | 0.688 ± 0.027 | 0.0677 ± 0.0055 | 0.076 ± 0.0056 | 0.137 ± 0.013 | 0.128 ± 0.025 | 0.0773 ± 0.004 | 0.0653 ± 0.012
8 | HCC1954 BREAST | 1.12 ± 0.018 | 0.975 ± 0.18 | 1.17 ± 0.19 | 1.25 ± 0.25 | 0.919 ± 0.077 | 0.909 ± 0.017 | 0.9483 ± 0.0088 | 0.771 ± 0.012 | 0.883 ± 0.13 | 0.766 ± 0.2 | 0.245 ± 0.035 | 0.235 ± 0.057 | 0.433 ± 0.0095 | 0.781 ± 0.0014 | 0.89 ± 0.035 | 0.699 ± 0.014
9 | VP229 BREAST | 1.05 ± 0.052 | 0.995 ± 0.089 | 0.878 ± 0.095 | 0.905 ± 0.13 | 1 ± 0.12 | 0.994 ± 0.055 | 0.947 ± 0.07 | 0.806 ± 0.077 | 0.94 ± 0.022 | 0.729 ± 0.081 | 0.373 ± 0.093 | 0.234 ± 0.019 | 0.254 ± 0.042 | 0.247 ± 0.019 | 0.242 ± 0.025 | 0.19 ± 0.011
10 | VCAP PROSTATE | 1.04 ± 0.12 | 1.06 ± 0.23 | 1.09 ± 0.12 | 1.11 ± 0.14 | 1.13 ± 0.058 | 1.09 ± 0.15 | 0.837 ± 0.07 | 0.722 ± 0.1 | 0.925 ± 0.13 | 0.243 ± 0.0099 | 0.0727 ± 0.012 | 0.0763 ± 0.015 | 0.154 ± 0.031 | 0.228 ± 0.031 | 0.07 ± 0.0027 | 0.0443 ± 0.013
